Values of other authors in patent US20150265628A1, “GENOMIC TESTING FOR EFFECTIVE THERAPIES AND DETERMINATION OF DOSING STRATEGY” (CompanionDx Reference Lab, LLC, priority 2014, published 2015).

Legend:
[1] = patients with schizophrenia, while taking the drug; perphenazine 1.0 as comparator
HLA-DQB1 = details: marker carriers, under the current blood-monitoring system

Compound	risk of death from suicide, adjusted for risk factors [1]	risk of CIA higher than the overall clozapine-treated population (HLA-DQB1)
CN1CCN(C2=Nc3cc(Cl)ccc3Nc3ccccc32)CC1 [clozapine]	0.34	1,175%
OCCN1CCN(CCCN2c3ccccc3Sc3ccc(Cl)cc32)CC1 [perphenazine]	1.0	
OCCOCCN1CCN(C2=Nc3ccccc3Sc3ccccc32)CC1 [quetiapine]	1.58	
